From PubChem BioAssay AID179 (DTP/NCI, 2004)
Active and inactive are the calls of the source.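 How the source made its calls: active means compounds giving half or more protection of infected cells from virus-caused growth loss, again on retest; inactive means the rest.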

System: CEM cells HIV-1 protection, formazan growth assay
Assay: NCI AIDS Antiviral Assay
Conditions: for IC50: measured here: growth of uninfected CEM cells
How it was run: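 Five concentrations of each compound were applied to infected and uninfected human CEM cells. Protection from HIV-1 was judged from growth measured with a soluble formazan assay.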

| Compound | EC50 | IC50 | outcome |
| --- | --- | --- | --- |
| COC(=O)C(=O)C(C(=O)OC)C(=O)C(=O)Nc1cc(Cl)c(C)cc1S(=O)(=O)O (stereo not drawn) | > 575 µM | > 575 µM | – |
| CN(C)CCN=C1Nc2ccccc2C(=S)N2CSCC12 (stereo not drawn) | > 200 µM | > 200 µM | – |
| Cc1c(/C=N/NC(=O)c2cc(Br)cc(Br)c2O)c(=O)n(-c2ccccc2)n1C | > 200 µM | 123 µM | – |
| CN(C)c1ccc(N=O)cc1 | > 2 µM | 1.12 µM | – |
| CC(C)(C)OC(=O)N(CC1OC(n2cnc3c(N)ncnc32)C2OC(C)(C)OC12)OC(=O)C(C)(C)C (stereo not drawn) | > 200 µM | > 200 µM | – |
| C[C@]12Cc3conc3C(O)=C1CC[C@@H]1C2CC[C@@]2(C)C1CC[C@]2(C)O (stereo partly drawn) | – | – | inactive |
| Cc1cc(S(=O)(=O)Nc2nc3ccccc3n2-c2ccccc2)c(S)cc1Cl | > 200 µM | 162 µM | – |
| COC(=O)C12CC(c3ccccc31)C1C(=O)OC(=O)C12 (stereo not drawn) | > 132 µM | > 132 µM | – |
| COc1ccc2c(c1)C(=O)CC1c3cnccc3C(=O)N21 (stereo not drawn) | > 200 µM | 115 µM | – |
| CCOC(=O)C(C)(C)Oc1ccc(Cl)cc1 | > 200 µM | > 200 µM | – |
| C=CCc1cc(OC)c2c(c1)C(O)CC(c1ccccc1)O2 (stereo not drawn) | > 170 µM | > 170 µM | – |
| c1ccc2[nH]c(-c3cscn3)nc2c1 | > 200 µM | > 200 µM | – |
| COc1ccc(/C(=N/O)c2ccccc2-c2nc3ccccc3c(=O)n2Nc2ccc([N+](=O)[O-])cc2[N+](=O)[O-])cc1C | > 200 µM | 43.7 µM | – |
| Cc1[nH]c2c(C)cccc2c1C1Cc2ccccc2N1 (stereo not drawn) | – | – | inactive |
| CC(=O)CCCCn1c(=O)c2c(nc(Br)n2C)n(C)c1=O | > 200 µM | 52.5 µM | – |
| Cc1cc(C)nc(NC(=S)Nc2cccc(Cl)c2)c1 | > 200 µM | 27.5 µM | – |
| CCCO/N=[N+](\[O-])N(CC)CC | > 8910 µM | > 8910 µM | – |
| CSc1s[s+]c(SC)c1-c1ccccc1 | 14.8 µM | 16.2 µM | – |
| NC(CSS(=O)(=O)O)=NCCCCOc1ccccc1 | > 200 µM | 91.2 µM | – |
| CCc1n[nH]c(=O)n1/N=C/c1c(O)ccc2ccccc12 | > 200 µM | > 200 µM | – |
| C/C(CC(=O)Nc1ccccc1)=N\NC(N)=S | > 1000 µM | 170 µM | – |
| COC(=O)c1ccc(COC(=O)c2cc(C(=CCC[C@H]3CC[C@@]4(C)[C@@H](CC[C@@H]5[C@@H]4CC[C@]4(C)[C@@H](C(C)CCCC(C)C)CC[C@@H]54)C3)c3cc(Cl)c(OCc4ccc(C(=O)OC)cc4)c(C(=O)OCc4ccc(C(=O)OC)cc4)c3)cc(Cl)c2OCc2ccc(C(=O)OC)cc2)cc1 (stereo partly drawn) | > 200 µM | > 200 µM | – |

| Compound | EC50 | IC50 | outcome |
| --- | --- | --- | --- |
| S=C1SC(c2ccc(Cl)cc2)(c2ccc(Cl)cc2)c2ccccc21 | > 200 µM | 123 µM | – |
| COS(=O)CCOC(=O)c1ccccc1SSc1ccccc1C(=O)OCCS(=O)OC (stereo not drawn) | 112 µM | > 200 µM | – |
| CCOC(=O)c1ccn2c(c1)c(C#N)c1nc3ccccc3nc12 | > 16.6 µM | > 16.6 µM | – |
| Cc1cc(N=Nc2cc(S(=O)(=O)O)c(N)cc2N)ccc1N=Nc1ccc2cc(S(=O)(=O)O)cc(S(=O)(=O)O)c2c1 | – | – | inactive |
| Cc1ccccc1N(CCC#N)C1=NN(C(=O)CC(=O)Nc2ccccc2)C(c2ccccc2)C1 (stereo not drawn) | > 77.6 µM | > 77.6 µM | – |
| CCCc1[nH]c(SCCCCCCCCSc2nc(-c3ccc(F)cc3)c(CCC)[nH]2)nc1-c1ccc(F)cc1 | > 9.33 µM | > 9.33 µM | – |
| CCCC(=O)N[C@@H](Cc1cc(I)c(O)c(I)c1)C(=O)NCCCNCCCCNCCCNC(=O)[C@@H](N)CCCN=C(N)N | > 100 µM | 44.7 µM | – |
| Cn1c2ccc(Cl)cc2c2oc(-c3nn[nH]n3)cc(=O)c21 | > 200 µM | 174 µM | – |
| Cc1cn(C2C=CCCC2O)c(=O)[nH]c1=O (stereo not drawn) | > 200 µM | > 200 µM | – |
| CCOC(=O)c1nc(SC)sc1NC(=O)c1ccccc1[N+](=O)[O-] | 195 µM | > 200 µM | – |
| O=C(O/N=C1/CCC/C1=C\c1ccccc1)c1ccc(Cl)c(Cl)c1 | – | – | inactive |
| N#C/C(=C\c1cccc(Cl)c1Cl)c1ccccc1 | > 24.5 µM | > 24.5 µM | – |
| CCCN1C(=O)CNC(=O)c2[nH]cnc21 | – | – | inactive |
| CCOC(=O)C(O)(NC(=O)Nc1ccc(F)cc1)C(F)(F)F (stereo not drawn) | > 200 µM | > 200 µM | – |
| COc1cc(/C=C/C(=O)C(C)(C)C)cc(OC)c1OC | > 178 µM | 11.5 µM | – |
| O=C(C=P(c1ccccc1)(c1ccccc1)c1ccccc1)c1ccccc1-c1ccccc1C(=O)C=P(c1ccccc1)(c1ccccc1)c1ccccc1 | > 1 µM | 0.107 µM | – |
| CC1(C)COC(C2Cc3ccccc3C(O)(c3ccccc3)C2)=N1 (stereo not drawn) | > 200 µM | > 200 µM | – |
| Cc1ccccc1C1OC1C(=O)c1ccccc1N (stereo not drawn) | > 200 µM | 46.8 µM | – |
| CCOC(=O)NC(Nc1ccc(F)cc1)(C(=O)OCC)C(F)(F)F (stereo not drawn) | – | – | inactive |
| COC(=O)C(CC(=O)Nc1ccc(Cl)c(Cl)c1)C(=O)C(=O)Nc1ccc(Cl)c(Cl)c1 (stereo not drawn) | > 52.5 µM | > 52.5 µM | – |
| CCN(CC)C(=O)C(C)=O | > 1740 µM | > 1740 µM | – |
| CC(=O)c1cc2c3c(c1)c1cc4c(cc1c(=O)n3CC2)OCO4 | – | – | inactive |

| Compound | EC50 | IC50 | outcome |
| --- | --- | --- | --- |
| C/C(=N\NC(N)=O)c1ccc(Cl)cc1 | > 123 µM | > 123 µM | – |
| O=c1[nH]nc(Cc2ccccc2)[nH]1 | > 200 µM | > 200 µM | – |
| Nc1nnc2nc(CC(=O)/C=C/c3ccccc3)c(=O)[nH]n12 | > 170 µM | > 170 µM | – |
| Nc1ncnc2c1N=C(c1ccccc1)CC(c1ccccc1)N2 (stereo not drawn) | > 200 µM | > 200 µM | – |
| Cc1cccc(-n2c(C)nc3ccc(NC4OC(CO)C(O)C(O)C4O)cc3c2=O)c1 (stereo not drawn) | > 200 µM | > 200 µM | – |
| CC[C@@H]1CC2CN3CCc4c([nH]c5cc(OC)ccc45)C(C(=O)OC)(C2)C13 (stereo partly drawn) | – | – | inactive |
| CC(=O)Nc1c(C#N)c2n(c1C(=O)Nc1ccc(Cl)cc1)CCC2 | > 200 µM | > 200 µM | – |
| CC(=O)C1(C(=O)C(=[N+]=[N-])S(=O)(=O)c2ccccc2)CC1 | > 851 µM | 8.32 µM | – |
| CCOC(=O)C(Cc1cc(OC)c(CC(C(=O)OCC)C(=O)OCC)cc1OC)C(=O)OCC | – | – | inactive |
| Cc1nn(C(=O)c2ccncc2)c2c1C(c1ccccc1)SC(N)=N2 (stereo not drawn) | 28.2 µM | > 100 µM | – |
| Cn1cnc([N+](=O)[O-])c1Sc1ccccn1 | > 1050 µM | 42.7 µM | – |
| COc1ccc(NC(=O)c2cc3cc(N=Nc4ccc(Br)cc4)ccc3oc2=O)cc1 | – | – | inactive |
| CN(C)C(=S)/N=c1\ss/c(=N\C(=S)N(C)C)n1-c1ccccc1 | > 200 µM | 191 µM | – |
| C=C1C(=O)OC2/C=C(\C)CC(O)/C=C(\C)CC(OC(=O)/C(=C\C)COC(C)=O)C12 (stereo not drawn) | > 115 µM | 0.407 µM | – |
| CC1CCOS(=O)O1 (stereo not drawn) | > 1820 µM | > 1820 µM | – |
| NC(=O)ON=C1CCN(Cc2ccccc2)CC1 | > 200 µM | > 200 µM | – |
| CC(C)N1CCN(C(C)C)CCN(C(C)C)CC1.[O]=[Mo](=[O])=[O] | > 100 µM | 75.9 µM | – |
| COc1ccc(/C=C/C(=N/NC(=O)N/N=C(/C=C/c2ccc(OC)cc2)C(C)(C)CN2CCCCC2)C(C)(C)CN2CCCCC2)cc1 | > 200 µM | 2.09 µM | – |
| COc1cc(NS(=O)(=O)c2ccc(N)cc2)nc(OC)n1 | > 200 µM | > 200 µM | – |
| CC1(C)CC(=O)C2=C(C1)Nc1ccc(Cl)cc1NC2c1cccc([N+](=O)[O-])c1 (stereo not drawn) | > 200 µM | 102 µM | – |
| OCC(O)COc1c(Cl)ccc(Cl)c1Cl (stereo not drawn) | 87.1 µM | 275 µM | – |
| COc1ccc2c(c1)C13CCCC(C)(C(=O)NC1)C3CC2 (stereo not drawn) | > 200 µM | > 200 µM | – |

| Compound | EC50 | IC50 | outcome |
| --- | --- | --- | --- |
| Brc1ccc(/C(N=N/C(=N\Sc2ccccc2)c2ccc(Br)cc2)=N/Sc2ccccc2)cc1 | > 50.1 µM | > 50.1 µM | – |
| C=CC1OC(CCCOC(=O)C(C)(C)C)O[C@@H]1CC (stereo partly drawn) | > 200 µM | > 200 µM | – |
| CCCCC(CC)C(=O)OC(C)CN(CC(C)OC(=O)C(CC)CCCC)C(=O)C(C)OC(=O)C(CC)CCCC (stereo not drawn) | – | – | inactive |
| O=[N+]([O-])c1ccc2[nH]nc(OCc3ccccn3)c2c1 | 115 µM | > 200 µM | – |
| CCOC(=O)NC(=O)c1cn(CCCOC(=O)NCCCCCCNC(=O)OCCCn2cc(C(=O)NC(=O)OCC)c(=O)[nH]c2=O)c(=O)[nH]c1=O | – | – | inactive |
| CCN(CC)C(=S)N/N=C(/c1ccccc1)c1ccccn1 | > 200 µM | 1.51 µM | – |
| Cc1cccc2c1Oc1ncccc1C2NC(=O)CN(C)C (stereo not drawn) | > 200 µM | > 200 µM | – |
| CCN(CC)c1ccc(N=Nc2ccc(-c3nc4cccnc4o3)cc2)cc1 | > 19.5 µM | > 19.5 µM | – |
| CC(=O)C(SSC(C(C)=O)C(C)=O)C(C)=O | > 200 µM | 8.51 µM | – |
| O=C1OC(CN2CCN(c3ccccc3)CC2)CN1C(=S)Nc1ccccc1 (stereo not drawn) | > 200 µM | 115 µM | – |
| COc1ccc2c(c1)-c1[nH]c3ccccc3c1CC2 | > 200 µM | 12 µM | – |
| CCOC(=O)c1[nH]c(COC(C)=O)c(CCCOC(C)=O)c1CCCOC(C)=O | – | – | inactive |
| CN(NC(=O)/C(=C\c1ccccc1Cl)NC(=O)c1ccccc1)c1cn[nH]c(=O)c1Cl | > 100 µM | 52.5 µM | – |
| N/N=C1/C(=O)N(c2ccc(Cl)cc2)C(=O)C(=O)C1c1nc2ccccc2s1 (stereo not drawn) | > 18.2 µM | > 18.2 µM | – |
| O=S1(=O)CCN(c2ccccc2CC(c2c[nH]c3ccccc23)c2c[nH]c3ccccc23)CC1 | > 5.75 µM | > 5.75 µM | – |
| O=C1c2ccccc2C(=O)c2c(NCCNCCO)ccc(O)c21 | – | – | inactive |
| CN1C(=O)c2ccccc2NC(=O)c2cnn(C)c21 | – | – | inactive |
| Cc1ccc(NC(=O)/C(=N\Nc2ccc([N+](=O)[O-])cc2[N+](=O)[O-])C2C(=O)NC(=O)NC2=O)cc1 | – | – | inactive |
| O=C(O)c1cccc(C(=O)c2ccccc2)c1 | > 200 µM | > 200 µM | – |
| Cc1cc2c(O)c(c1)COCc1cc(C)cc(c1O)COCc1cc(C)cc(c1O)COC2 | > 200 µM | 138 µM | – |
| C=CC(C)(CC/C=C(\C)CCC=C(C)C)c1cc(O)c(O)c(-c2cc(C(C)(C=C)CC/C=C(\C)CCC=C(C)C)cc(O)c2O)c1 (stereo not drawn) | > 5.75 µM | > 5.75 µM | – |
